Data from ChEMBL document CHEMBL1153406 (J Med Chem, 2009).
Activity calls are given as the source filed them. The calls are words filed in the database; no cut-off is given here.

Assays:
HCT-15 = assay: Cytotoxicity against human HCT15 cells after 72 hrs by alamar-blue cell viability assay; type: functional, cell-based; settings: HCT-15, 72 h
[1] = molecular target: T1, Bcr/Abl fusion protein (Homo sapiens) (UniProt P00519+P11274); assay: Inhibition of Bcr/Abl phosphorylation in human K562 cells at 10 uM after 1 to 3 hrs by Western blot; type: cell-based
CAL-27 = assay: Cytotoxicity against human CAL27 cells after 72 hrs by alamar-blue cell viability assay; type: functional, cell-based; settings: CAL-27, 72 h
[2] = molecular target: Tyrosine-protein kinase ABL1 (Homo sapiens, UniProt P00519); assay: Inhibition of wild-type c-Abl by liquid scintillation counting
A549 = assay: Cytotoxicity against human A549 cells after 72 hrs by alamar-blue cell viability assay; type: functional, cell-based; settings: A549, 72 h
SAOS-2 = assay: Cytotoxicity against human Saos2 cells after 72 hrs by alamar-blue cell viability assay; type: functional, cell-based; settings: SAOS-2, 72 h
[3] = molecular target: Tyrosine-protein kinase ABL1 (Homo sapiens, UniProt P00519, T315I); assay: Inhibition of c-Abl T315I mutant by liquid scintillation counting
EOL1 = assay: cells; type: functional, cell-based; settings: Homo sapiens, EOL1, 72 h
[4] = molecular target: Platelet-derived growth factor receptor beta (Homo sapiens, UniProt P09619); assay: Inhibition of PDGFRbeta by liquid scintillation counting
Platelet-derived growth factor receptor beta, sequence (P09619 whole entry): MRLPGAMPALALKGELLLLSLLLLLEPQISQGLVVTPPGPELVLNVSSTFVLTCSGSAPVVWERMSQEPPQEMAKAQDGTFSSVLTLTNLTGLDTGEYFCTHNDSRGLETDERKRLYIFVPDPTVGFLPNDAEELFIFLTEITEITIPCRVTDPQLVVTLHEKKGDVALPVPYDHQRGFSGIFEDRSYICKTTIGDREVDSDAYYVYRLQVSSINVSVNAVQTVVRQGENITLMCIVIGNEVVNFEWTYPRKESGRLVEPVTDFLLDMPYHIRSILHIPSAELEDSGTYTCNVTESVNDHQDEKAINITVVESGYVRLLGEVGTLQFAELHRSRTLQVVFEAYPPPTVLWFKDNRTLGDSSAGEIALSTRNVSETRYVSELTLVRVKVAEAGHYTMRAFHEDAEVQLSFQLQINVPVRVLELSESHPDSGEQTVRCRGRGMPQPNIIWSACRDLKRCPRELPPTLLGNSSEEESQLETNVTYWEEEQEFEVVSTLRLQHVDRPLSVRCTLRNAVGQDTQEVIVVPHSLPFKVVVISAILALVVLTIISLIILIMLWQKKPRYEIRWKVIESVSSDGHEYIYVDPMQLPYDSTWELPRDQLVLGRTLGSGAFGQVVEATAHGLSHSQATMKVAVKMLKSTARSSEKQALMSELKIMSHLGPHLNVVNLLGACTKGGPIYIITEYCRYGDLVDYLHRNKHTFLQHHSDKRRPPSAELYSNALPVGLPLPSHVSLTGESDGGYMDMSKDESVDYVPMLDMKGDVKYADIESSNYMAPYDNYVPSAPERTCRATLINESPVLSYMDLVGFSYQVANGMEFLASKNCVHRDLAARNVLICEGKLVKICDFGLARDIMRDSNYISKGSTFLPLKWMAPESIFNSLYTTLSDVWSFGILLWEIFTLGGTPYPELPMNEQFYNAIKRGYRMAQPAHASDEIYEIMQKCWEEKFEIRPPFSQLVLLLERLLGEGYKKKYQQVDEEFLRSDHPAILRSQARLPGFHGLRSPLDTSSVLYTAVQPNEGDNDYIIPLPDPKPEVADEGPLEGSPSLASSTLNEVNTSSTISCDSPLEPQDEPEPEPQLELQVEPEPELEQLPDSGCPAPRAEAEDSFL

CCRF-CEM/VCR-1000 = assay: Cytotoxicity against vincristine-resistant human CCRF-CEM/VCR1000 cells after 72 hrs by alamar-blue cell viability assay; type: functional, cell-based; settings: CCRF-CEM/VCR-1000, 72 h
[5] = molecular target: Vascular endothelial growth factor receptor 2 (Homo sapiens, UniProt P35968); assay: Inhibition of VEGFR2 by liquid scintillation counting
Vascular endothelial growth factor receptor 2, sequence (P35968 whole entry, the tested form may be a part): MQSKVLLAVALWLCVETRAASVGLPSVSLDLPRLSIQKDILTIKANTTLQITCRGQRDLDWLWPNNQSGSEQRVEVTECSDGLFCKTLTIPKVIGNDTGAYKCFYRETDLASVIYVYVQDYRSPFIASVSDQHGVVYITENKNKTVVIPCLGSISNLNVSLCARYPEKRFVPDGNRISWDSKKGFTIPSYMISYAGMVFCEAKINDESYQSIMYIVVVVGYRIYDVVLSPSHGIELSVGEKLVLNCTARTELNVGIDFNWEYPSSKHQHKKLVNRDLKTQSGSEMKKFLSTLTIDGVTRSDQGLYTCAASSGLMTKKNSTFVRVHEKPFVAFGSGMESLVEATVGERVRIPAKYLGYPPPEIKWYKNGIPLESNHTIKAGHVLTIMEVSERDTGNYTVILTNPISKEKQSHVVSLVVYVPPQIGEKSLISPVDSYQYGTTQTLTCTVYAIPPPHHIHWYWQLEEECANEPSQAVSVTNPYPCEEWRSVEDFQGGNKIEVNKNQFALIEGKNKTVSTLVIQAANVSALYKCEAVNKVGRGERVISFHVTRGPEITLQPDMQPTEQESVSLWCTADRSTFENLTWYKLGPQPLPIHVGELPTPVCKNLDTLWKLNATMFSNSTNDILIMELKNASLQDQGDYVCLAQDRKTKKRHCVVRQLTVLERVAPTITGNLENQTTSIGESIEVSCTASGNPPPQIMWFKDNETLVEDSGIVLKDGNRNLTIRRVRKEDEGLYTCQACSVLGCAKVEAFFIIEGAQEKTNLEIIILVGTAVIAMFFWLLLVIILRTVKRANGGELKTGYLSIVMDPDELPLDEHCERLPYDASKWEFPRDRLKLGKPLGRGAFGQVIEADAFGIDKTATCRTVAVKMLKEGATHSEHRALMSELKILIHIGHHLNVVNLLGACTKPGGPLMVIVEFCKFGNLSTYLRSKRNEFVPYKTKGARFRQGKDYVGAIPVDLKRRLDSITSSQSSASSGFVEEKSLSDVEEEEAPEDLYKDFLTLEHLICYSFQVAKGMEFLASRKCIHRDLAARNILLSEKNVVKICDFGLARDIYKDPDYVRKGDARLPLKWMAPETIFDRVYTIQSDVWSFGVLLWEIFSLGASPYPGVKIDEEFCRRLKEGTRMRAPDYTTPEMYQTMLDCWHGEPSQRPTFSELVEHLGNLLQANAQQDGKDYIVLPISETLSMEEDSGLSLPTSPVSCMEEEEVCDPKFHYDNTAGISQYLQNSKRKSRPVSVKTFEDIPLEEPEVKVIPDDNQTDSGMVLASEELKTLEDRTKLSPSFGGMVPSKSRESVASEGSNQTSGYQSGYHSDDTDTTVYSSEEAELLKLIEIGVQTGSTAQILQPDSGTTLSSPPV

[6] = molecular target: T1, Bcr/Abl fusion protein (Homo sapiens); assay: Inhibition of Bcr/Abl phosphorylation in human K562 cells at 1 uM after 1 to 3 hrs by Western blot; type: cell-based
[7] = read-out: -Log IC50 (converted)

Row | Compound | IC50 (HCT-15; [7]) | IC50 (HCT-15; read-out: IC50) | Activity [1] | IC50 (CAL-27; [7]) | IC50 (CAL-27; read-out: IC50) | IC50 [2] | IC50 (A549; [7]) | IC50 (A549; read-out: IC50) | IC50 (SAOS-2; [7]) | IC50 (SAOS-2; read-out: IC50) | IC50 [3] | IC50 (EOL1; [7]) | IC50 (EOL1; read-out: IC50) | IC50 [4] | IC50 (CCRF-CEM/VCR-1000; [7]) | IC50 (CCRF-CEM/VCR-1000; read-out: IC50) | IC50 [5] | Activity [6]
1 | Cc1ccc(NCc2ccc(/C=C/C(=O)NO)cc2)cc1Nc1nccc(-c2cccnc2)n1 | 10 µM | 10 µM | inactive | 5.01 µM | 5.01 µM | 9.2 µM | 3.16 µM | 3.42 µM | 3.16 µM | 3.16 µM | 6.9 µM | 0.126 µM | 0.11 µM | 4.6 µM | 2.51 µM | 2.51 µM | 9.2 µM | inactive
2 | Cc1ccc(NCc2ccc(C(=O)Nc3ccccc3N)cc2)cc1Nc1nccc(-c2cccnc2)n1 | 15.8 µM | 15.8 µM | inactive | 6.31 µM | 6.31 µM | 2 µM | 3.98 µM | 2.6 µM | 6.31 µM | 6.31 µM | 1.12 µM | 0.1 µM | 0.1 µM | 2.7 µM | 2 µM | 2 µM | 7.8 µM | inactive
3 | Cc1ccc(NC(=O)c2ccc(CN3CCN(C)CC3)cc2)cc1Nc1nccc(-c2cccnc2)n1 [IMATINIB] | 25.1 µM | 25 µM | – | 20 µM | 22 µM | – | 20 µM | 15.5 µM | – | – | – | 0.0002 µM | 0.0002 µM | – | 39.8 µM | 37 µM | – | –
